Key:
Format in all cases: cell-based
MCF-7 = test: MTT cytotoxicity test, MCF-7; conditions: 24 h
Text: (§1) In this test, […] present in the cells converts the soluble tetrazolium salt (3-4,5-dimethylthiazol-2-yl)-2,5-diphenyltetrazolium bromide) into a reduced form. The reaction yields water-insoluble purple crystalline formazan. The number of crystals formed depends on the enzyme activity so that it is directly proportional to the number of viable cells in the sample. Spectrophotometric measurement requires the use of an organic solvent to dissolve the crystals obtained (isopropanol). The change in colour intensity is measured by spectrophotometry at 570 nm wavelength. The test was performed for a number of dilutions (9) of nanoparticle solutions containing the tested anthracycline. The baseline concentration of nanoparticles for MTT tests was 2.5 mg of nanoparticles/ml. […] The study was also performed for drug-free nanoparticles (the carrier itself was obtained similarly to the nanoparticles with the drug). Cells not exposed to toxic substances were used as a control for toxicity studies.
(§2) After reaching 85-90% confluence, the cells were trypsinised using a 0.25% trypsin solution. The cells were then centrifuged (1200 rpm, 5 min.) and suspended in a culture medium suitable for a particular cell line. […] The cells were plated at a concentration of 1000 cells/100 μl of medium per culture well (96-well plates). The prepared plates were incubated (37° C./5% CO2/22 h to 26 h). Subsequently, the culture medium was replaced with a fresh one (100 μl) containing the appropriate concentration of the tested nanoparticles and set aside for 24 h (37° C./5% CO2). After the lapse of the test time, the medium was removed and replaced with 50 μl of an MTT reagent solution at a concentration of 1 mg/ml. The plate was incubated for 2 hours (37° C./5% CO2). Subsequently, the MTT solution was removed, and 100 μl of isopropanol was added. […] The mean value of absorbance read OD570 of the cells not exposed to a toxic agent (control) should be above 0.7 [see literature item 206].
(§3) A decrease in the number of viable cells causes a decrease in metabolic activity in the sample. This reduction directly correlates with the amount of blue and purple formazan formed, monitored basing on the optical density at 570 nm. The following equation (C.1) is used to calculate viability reduction compared to control:
(§4) where: • OD570e is the mean value of the measured absorbance of the test samples; • OD570b is the mean value of the measured absorbance of the control.
(§5) The results obtained were statistically analysed using the Dixon Q test.

OVCAR-3 = test: MTT cytotoxicity test, OVCAR-3; conditions: 24 h
Text: as §1, §2, §3, §4, §5

[1] = MTT cytotoxicity test, HeLa; conditions: human, HeLa cells; for viability at 24 h, 125000 ng/ml NPs (pure drug equimolar): 1.25E+05 ng/ml NPs (pure drug equimolar); for viability at 24 h, 25000 ng/ml NPs (pure drug equimolar): 2.50E+04 ng/ml NPs (pure drug equimolar); for viability at 24 h, 50000 ng/ml NPs (pure drug equimolar): 5.00E+04 ng/ml NPs (pure drug equimolar)
Text: (§6) In this test, […] present in the cells converts the soluble tetrazolium salt (3-4,5-dimethylthiazol-2-yl)-2,5-diphenyltetrazolium bromide) into a reduced form. The reaction yields water-insoluble purple crystalline formazan. The number of crystals formed depends on the enzyme activity so that it is directly proportional to the number of viable cells in the sample. Spectrophotometric measurement requires the use of an organic solvent to dissolve the crystals obtained (isopropanol). The change in colour intensity is measured by spectrophotometry at 570 nm wavelength. The test was performed for a number of dilutions (9) of nanoparticle solutions containing the tested anthracycline. The baseline concentration of nanoparticles for MTT tests was 2.5 mg of nanoparticles/ml. The results were compared to cytotoxicity results obtained for pure drugs with equimolar drug concentration (equal to the concentration encapsulated in nanoparticles). The study was also performed for drug-free nanoparticles (the carrier itself was obtained similarly to the nanoparticles with the drug). Cells not exposed to toxic substances were used as a control for toxicity studies.
(§7) After reaching 85-90% confluence, the cells were trypsinised using a 0.25% trypsin solution. The cells were then centrifuged (1200 rpm, 5 min.) and suspended in a culture medium suitable for a particular cell line. […] The cells were plated at a concentration of 1000 cells/100 μl of medium per culture well (96-well plates). The prepared plates were incubated (37° C./5% CO2/22 h to 26 h). Subsequently, the culture medium was replaced with a fresh one (100 μl) containing the appropriate concentration of the tested nanoparticles and set aside for 24 h (37° C./5% CO2). After the lapse of the test time, the medium was removed and replaced with 50 μl of an MTT reagent solution at a concentration of 1 mg/ml. The plate was incubated for 2 hours (37° C./5% CO2). Subsequently, the MTT solution was removed, and 100 μl of isopropanol was added. After shaking the plate on the shaker for 2 minutes, the results for 570 nm wavelength were read (reference value of 650 nm). The mean value of absorbance read OD570 of the cells not exposed to a toxic agent (control) should be above 0.7 [see literature item 206].
as §3, §4, §5

HeLa cell line = test: MTT cytotoxicity test, HeLa; conditions: 24 h
Text: as §6, §7, §3, §4, §5

AU565 = test: MTT cytotoxicity test, AU565; conditions: 24 h
Text: as §1, §2, §3, §4, §5

PANC-1 = test: MTT cytotoxicity test, PANC-1; conditions: 24 h
Text: as §1, §2, §3, §4, §5

[2] = MCF-7, 1.25E+04 ng/ml NPs (pure drug equimolar)
[3] = MCF-7, 1.25E+05 ng/ml NPs (pure drug equimolar)
[4] = MCF-7, 1.25E+06 ng/ml NPs (pure drug equimolar)
[5] = MCF-7, 2.50E+04 ng/ml NPs (pure drug equimolar)
[6] = MCF-7, 2.50E+05 ng/ml NPs (pure drug equimolar)
[7] = MCF-7, 2.50E+06 ng/ml NPs (pure drug equimolar)
[8] = MCF-7, 5.00E+03 ng/ml NPs (pure drug equimolar)
[9] = MCF-7, 5.00E+04 ng/ml NPs (pure drug equimolar)
[10] = MCF-7, 5.00E+05 ng/ml NPs (pure drug equimolar)
[11] = OVCAR3, 1.25E+05 ng/ml NPs (pure drug equimolar)
[12] = OVCAR3, 1.25E+06 ng/ml NPs (pure drug equimolar)
[13] = OVCAR3, 2.50E+04 ng/ml NPs (pure drug equimolar)
[14] = OVCAR3, 2.50E+05 ng/ml NPs (pure drug equimolar)
[15] = OVCAR3, 2.50E+06 ng/ml NPs (pure drug equimolar)
[16] = OVCAR3, 5.00E+04 ng/ml NPs (pure drug equimolar)
[17] = OVCAR3, 5.00E+05 ng/ml NPs (pure drug equimolar)
[18] = 1.25E+04 ng/ml NPs (pure drug equimolar)
[19] = 1.25E+06 ng/ml NPs (pure drug equimolar)
[20] = 2.50E+05 ng/ml NPs (pure drug equimolar)
[21] = 2.50E+06 ng/ml NPs (pure drug equimolar)
[22] = 5.00E+03 ng/ml NPs (pure drug equimolar)
[23] = 5.00E+05 ng/ml NPs (pure drug equimolar)
[24] = AU565, 1.25E+04 ng/ml NPs (pure drug equimolar)
[25] = AU565, 1.25E+05 ng/ml NPs (pure drug equimolar)
[26] = AU565, 2.50E+04 ng/ml NPs (pure drug equimolar)
[27] = AU565, 2.50E+05 ng/ml NPs (pure drug equimolar)
[28] = AU565, 2.50E+06 ng/ml NPs (pure drug equimolar)
[29] = AU565, 5.00E+03 ng/ml NPs (pure drug equimolar)
[30] = AU565, 5.00E+04 ng/ml NPs (pure drug equimolar)
[31] = AU565, 5.00E+05 ng/ml NPs (pure drug equimolar)
[32] = PANC1, 1.25E+05 ng/ml NPs (pure drug equimolar)
[33] = PANC1, 1.25E+06 ng/ml NPs (pure drug equimolar)
[34] = PANC1, 2.50E+04 ng/ml NPs (pure drug equimolar)
[35] = PANC1, 2.50E+05 ng/ml NPs (pure drug equimolar)
[36] = PANC1, 2.50E+06 ng/ml NPs (pure drug equimolar)
[37] = PANC1, 5.00E+03 ng/ml NPs (pure drug equimolar)
[38] = PANC1, 5.00E+05 ng/ml NPs (pure drug equimolar)

COc1cccc2c1C(=O)c1c(O)c3c(c(O)c1C2=O)C[C@@](O)(C(=O)CO)C[C@@H]3O[C@H]1C[C@H](N)[C@@H](O)[C@H](C)O1 [Epi, epirubicin]
Average viability (MCF-7; [2]): 88.51% | Average viability (MCF-7; [3]): 46.97% | Average viability (MCF-7; [4]): 5.9% | Average viability (MCF-7; [5]): 64.7% | Average viability (MCF-7; [6]): 41.35% | Average viability (MCF-7; [7]): 1.68% | Average viability (MCF-7; [8]): 97.78% | Average viability (MCF-7; [9]): 56.01% | Average viability (MCF-7; [10]): 31.11% | Average viability (OVCAR-3; [11]): 91.668% | Average viability (OVCAR-3; [12]): 58.803% | Average viability (OVCAR-3; [13]): 99.208% | Average viability (OVCAR-3; [14]): 88.222% | Average viability (OVCAR-3; [15]): 33.266% | Average viability (OVCAR-3; [16]): 92.151% | Average viability (OVCAR-3; [17]): 75.986% | viability at 24 h, 125000 ng/ml NPs (pure drug equimolar) [1]: 12.7% | viability at 24 h, 25000 ng/ml NPs (pure drug equimolar) [1]: 72.8% | viability at 24 h, 50000 ng/ml NPs (pure drug equimolar) [1]: 17% | Average viability (HeLa cell line; [18]): 98.38% | Average viability (HeLa cell line; [19]): 3.6% | Average viability (HeLa cell line; [20]): 14.93% | Average viability (HeLa cell line; [21]): 4.21% | Average viability (HeLa cell line; [22]): 100.18% | Average viability (HeLa cell line; [23]): 7.96% | Average viability (AU565; [24]): 66.48% | Average viability (AU565; [25]): 48.38% | Average viability (AU565; [26]): 66.439% | Average viability (AU565; [27]): 29.222% | Average viability (AU565; [28]): 1.822% | Average viability (AU565; [29]): 84.738% | Average viability (AU565; [30]): 48.052% | Average viability (AU565; [31]): 11.723% | Average viability (PANC-1; PANC1, 1.25E+04 ng/ml NPs (pure drug equimolar)): 94.813% | Average viability (PANC-1; [32]): 82.872% | Average viability (PANC-1; [33]): 27.965% | Average viability (PANC-1; [34]): 99.155% | Average viability (PANC-1; [35]): 79.499% | Average viability (PANC-1; [36]): 5.339% | Average viability (PANC-1; [37]): 97.954% | Average viability (PANC-1; [38]): 54.929%

COc1cccc2c1C(=O)c1c(O)c3c(c(O)c1C2=O)C[C@@](O)(C(C)=O)C[C@@H]3O[C@H]1C[C@H](N)[C@H](O)[C@H](C)O1 [Dau, daunorubicin]
Average viability (MCF-7; [2]): 1.153% | Average viability (MCF-7; [3]): 17.162% | Average viability (MCF-7; [4]): 40.867% | Average viability (MCF-7; [5]): 1.072% | Average viability (MCF-7; [6]): 23.086% | Average viability (MCF-7; [7]): 69.450% | Average viability (MCF-7; [8]): 1.311% | Average viability (MCF-7; [9]): 4.421% | Average viability (MCF-7; [10]): 25.325% | Average viability (OVCAR-3; OVCAR3, 1.25E+04 ng/ml NPs (pure drug equimolar)): 3.616% | Average viability (OVCAR-3; [11]): 59.635% | Average viability (OVCAR-3; [12]): 94.253% | Average viability (OVCAR-3; [13]): 43.386% | Average viability (OVCAR-3; [14]): 71.147% | Average viability (OVCAR-3; [15]): 99.822% | Average viability (OVCAR-3; OVCAR3, 5.00E+03 ng/ml NPs (pure drug equimolar)): 1.330% | Average viability (OVCAR-3; [16]): 52.550% | Average viability (OVCAR-3; [17]): 120.518% | viability at 24 h, 125000 ng/ml NPs (pure drug equimolar) [1]: 7.89% | viability at 24 h, 25000 ng/ml NPs (pure drug equimolar) [1]: 2.11% | viability at 24 h, 50000 ng/ml NPs (pure drug equimolar) [1]: 4.14% | Average viability (HeLa cell line; [18]): 2.851% | Average viability (HeLa cell line; [19]): 107.342% | Average viability (HeLa cell line; [20]): 7.579% | Average viability (HeLa cell line; [21]): 111.366% | Average viability (HeLa cell line; [22]): 2.054% | Average viability (HeLa cell line; [23]): 28.287% | Average viability (AU565; [24]): 58.57% | Average viability (AU565; [25]): 25.83% | Average viability (AU565; AU565, 1.25E+06 ng/ml NPs (pure drug equimolar)): 1.544% | Average viability (AU565; [26]): 33.22% | Average viability (AU565; [27]): 12.14% | Average viability (AU565; [28]): 1.053% | Average viability (AU565; [29]): 75.96% | Average viability (AU565; [30]): 28.26% | Average viability (AU565; [31]): 3.245% | Average viability (PANC-1; [32]): 48.79% | Average viability (PANC-1; [33]): 1.02% | Average viability (PANC-1; [34]): 61.24% | Average viability (PANC-1; [35]): 33.21% | Average viability (PANC-1; [36]): 95.12% | Average viability (PANC-1; [37]): 95.12% | Average viability (PANC-1; PANC1, 5.00E+04 ng/ml NPs (pure drug equimolar)): 56.67% | Average viability (PANC-1; [38]): 0.54%

— patent US20210052616A1, “ANTHRACYCLINE ENCAPSULATED WITH A POLYSACCHARIDE FOR USE IN THE TREATMENT OF TUMOURS” (NANOVELOS S.A, priority 2018, published 2021)
